# Data taken from PubChem BioAssay (NCI).
#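 Five concentrations, 48 hours, 96-well plates. GI50: concentration for 50% inhibition of growth. TGI marks complete inhibition of growth.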
# Columns and labels:
# Assay in all cases: DTP human tumour cell line panel, 48 h
# 786-0 renal = tested on: 786-0 renal
# A498 renal = tested on: A498 renal
# A549 NSCLC = tested on: A549 NSCLC
# ACHN renal = tested on: ACHN renal
# BT-549 breast = tested on: BT-549 breast
# CAKI-1 renal = tested on: CAKI-1 renal
# CCRF-CEM leukemia = tested on: CCRF-CEM leukemia
# COLO 205 colon = tested on: COLO 205 colon
# DU-145 prostate = tested on: DU-145 prostate
# EKVX NSCLC = tested on: EKVX NSCLC
# HCC-2998 colon = tested on: HCC-2998 colon
# HCT-116 colon = tested on: HCT-116 colon
# HCT-15 colon = tested on: HCT-15 colon
# HL-60(TB) leukemia = tested on: HL-60(TB) leukemia
# HOP-62 NSCLC = tested on: HOP-62 NSCLC
# HOP-92 NSCLC = tested on: HOP-92 NSCLC
# HS 578T breast = tested on: HS 578T breast
# HT29 colon = tested on: HT29 colon
# IGROV1 ovarian = tested on: IGROV1 ovarian
# K-562 leukemia = tested on: K-562 leukemia
# KM12 colon = tested on: KM12 colon
# LOX IMVI melanoma = tested on: LOX IMVI melanoma
# M14 melanoma = tested on: M14 melanoma
# MALME-3M melanoma = tested on: MALME-3M melanoma
# MCF7 breast = tested on: MCF7 breast
# MDA-MB-231 breast = tested on: MDA-MB-231 breast
# MDA-MB-435 = tested on: MDA-MB-435
# MOLT-4 leukemia = tested on: MOLT-4 leukemia
# NCI-H226 lung = tested on: NCI-H226 lung
# NCI-H23 lung = tested on: NCI-H23 lung
# NCI-H460 lung = tested on: NCI-H460 lung
# NCI-H522 lung = tested on: NCI-H522 lung
# NCI/ADR-RES ovarian = tested on: NCI/ADR-RES ovarian
# OVCAR-3 ovarian = tested on: OVCAR-3 ovarian
# OVCAR-4 ovarian = tested on: OVCAR-4 ovarian
# OVCAR-5 ovarian = tested on: OVCAR-5 ovarian
# OVCAR-8 ovarian = tested on: OVCAR-8 ovarian
# PC-3 prostate = tested on: PC-3 prostate
# RPMI-8226 leukemia = tested on: RPMI-8226 leukemia
# RXF 393 renal = tested on: RXF 393 renal
# SF-268 CNS = tested on: SF-268 CNS
# SF-295 CNS = tested on: SF-295 CNS
# SF-539 CNS = tested on: SF-539 CNS
# SK-MEL-2 melanoma = tested on: SK-MEL-2 melanoma
# SK-MEL-28 melanoma = tested on: SK-MEL-28 melanoma
# SK-MEL-5 melanoma = tested on: SK-MEL-5 melanoma
# SK-OV-3 ovarian = tested on: SK-OV-3 ovarian
# SN12C renal = tested on: SN12C renal
# SNB-19 CNS = tested on: SNB-19 CNS
# SNB-75 CNS = tested on: SNB-75 CNS
# SR leukemia = tested on: SR leukemia
# SW-620 colon = tested on: SW-620 colon
# T-47D breast = tested on: T-47D breast
# TK-10 renal = tested on: TK-10 renal
# U251 CNS = tested on: U251 CNS
# UACC-257 melanoma = tested on: UACC-257 melanoma
# UACC-62 melanoma = tested on: UACC-62 melanoma
# UO-31 renal = tested on: UO-31 renal
smiles,measurement,setting,value
O=C(N/N=C/c1ccc([N+](=O)[O-])s1)c1[nH]c2ccc(Br)cc2c1-c1ccccc1,GI50,786-0 renal,1300 nM
same,TGI,786-0 renal,19200 nM
same,GI50,A498 renal,> 34700 nM
same,TGI,A498 renal,> 92100 nM
same,GI50,A549 NSCLC,1070 nM
same,TGI,A549 NSCLC,12900 nM
same,GI50,ACHN renal,883 nM
same,GI50,BT-549 breast,747 nM
same,TGI,BT-549 breast,2670 nM
same,GI50,CAKI-1 renal,1510 nM
same,TGI,CAKI-1 renal,> 26100 nM
same,GI50,CCRF-CEM leukemia,1220 nM
same,TGI,CCRF-CEM leukemia,99600 nM
same,GI50,COLO 205 colon,578 nM
same,TGI,COLO 205 colon,1140 nM
same,GI50,DU-145 prostate,1140 nM
same,TGI,DU-145 prostate,> 55400 nM
same,GI50,EKVX NSCLC,1720 nM
same,TGI,EKVX NSCLC,8290 nM
same,GI50,HCC-2998 colon,787 nM
same,TGI,HCC-2998 colon,2120 nM
same,GI50,HCT-116 colon,816 nM
same,TGI,HCT-116 colon,4700 nM
same,GI50,HCT-15 colon,706 nM
same,TGI,HCT-15 colon,2720 nM
same,GI50,HL-60(TB) leukemia,723 nM
same,TGI,HL-60(TB) leukemia,1940 nM
same,GI50,HOP-62 NSCLC,1070 nM
same,TGI,HOP-62 NSCLC,6970 nM
same,GI50,HOP-92 NSCLC,851 nM
same,TGI,HOP-92 NSCLC,4610 nM
same,GI50,HS 578T breast,943 nM
same,TGI,HS 578T breast,12900 nM
same,GI50,HT29 colon,858 nM
same,TGI,HT29 colon,2800 nM
same,GI50,IGROV1 ovarian,932 nM
same,TGI,IGROV1 ovarian,> 50900 nM
same,GI50,K-562 leukemia,365 nM
same,TGI,K-562 leukemia,14200 nM
same,GI50,KM12 colon,1080 nM
same,TGI,KM12 colon,5470 nM
same,GI50,LOX IMVI melanoma,487 nM
same,TGI,LOX IMVI melanoma,12700 nM
same,GI50,M14 melanoma,627 nM
same,TGI,M14 melanoma,2030 nM
same,GI50,MALME-3M melanoma,800 nM
same,TGI,MALME-3M melanoma,4500 nM
same,GI50,MCF7 breast,741 nM
same,TGI,MCF7 breast,> 32400 nM
same,GI50,MDA-MB-231 breast,881 nM
same,TGI,MDA-MB-231 breast,2850 nM
same,GI50,MDA-MB-435,323 nM
same,TGI,MDA-MB-435,918 nM
same,GI50,MOLT-4 leukemia,1070 nM
same,TGI,MOLT-4 leukemia,16600 nM
same,GI50,NCI-H226 lung,716 nM
same,TGI,NCI-H226 lung,2780 nM
same,GI50,NCI-H23 lung,1180 nM
same,TGI,NCI-H23 lung,18800 nM
same,GI50,NCI-H460 lung,820 nM
same,TGI,NCI-H460 lung,3030 nM
same,GI50,NCI-H522 lung,115 nM
same,TGI,NCI-H522 lung,535 nM
same,GI50,NCI/ADR-RES ovarian,458 nM
same,GI50,OVCAR-3 ovarian,1060 nM
same,TGI,OVCAR-3 ovarian,9860 nM
same,GI50,OVCAR-4 ovarian,1630 nM
same,TGI,OVCAR-4 ovarian,> 46900 nM
same,GI50,OVCAR-5 ovarian,1140 nM
same,TGI,OVCAR-5 ovarian,27200 nM
same,GI50,OVCAR-8 ovarian,756 nM
same,TGI,OVCAR-8 ovarian,2080 nM
same,GI50,PC-3 prostate,967 nM
same,GI50,RPMI-8226 leukemia,912 nM
same,TGI,RPMI-8226 leukemia,8560 nM
same,GI50,RXF 393 renal,354 nM
same,TGI,RXF 393 renal,9220 nM
same,GI50,SF-268 CNS,1840 nM
same,TGI,SF-268 CNS,> 100000 nM
same,GI50,SF-295 CNS,596 nM
same,TGI,SF-295 CNS,12200 nM
same,GI50,SF-539 CNS,515 nM
same,TGI,SF-539 CNS,1510 nM
same,GI50,SK-MEL-2 melanoma,769 nM
same,TGI,SK-MEL-2 melanoma,2540 nM
same,GI50,SK-MEL-28 melanoma,995 nM
same,TGI,SK-MEL-28 melanoma,> 34200 nM
same,GI50,SK-MEL-5 melanoma,605 nM
same,TGI,SK-MEL-5 melanoma,1290 nM
same,GI50,SK-OV-3 ovarian,1690 nM
same,TGI,SK-OV-3 ovarian,> 53500 nM
same,GI50,SN12C renal,885 nM
same,TGI,SN12C renal,3130 nM
same,GI50,SNB-19 CNS,961 nM
same,TGI,SNB-19 CNS,> 32300 nM
same,GI50,SNB-75 CNS,320 nM
same,TGI,SNB-75 CNS,5710 nM
same,GI50,SR leukemia,391 nM
same,TGI,SR leukemia,10600 nM
same,GI50,SW-620 colon,768 nM
same,TGI,SW-620 colon,8530 nM
same,GI50,T-47D breast,2350 nM
same,TGI,T-47D breast,> 91300 nM
same,GI50,TK-10 renal,2970 nM
same,TGI,TK-10 renal,> 49800 nM
same,GI50,U251 CNS,716 nM
same,TGI,U251 CNS,3030 nM
same,GI50,UACC-257 melanoma,916 nM
same,TGI,UACC-257 melanoma,9150 nM
same,GI50,UACC-62 melanoma,401 nM
same,TGI,UACC-62 melanoma,3980 nM
same,GI50,UO-31 renal,1040 nM
same,TGI,UO-31 renal,> 33400 nM
